From a melting point compilation (Tetko et al.; mined from patent text by program, amines drawn as free bases though some values may be those of a salt) come the findings set out here.

Structures are written as SMILES.

Consider `CCCc1c(OCCCOc2c(C(C)=O)ccc(OCC(=O)OCC)c2CCC)ccc(C(C)=O)c1O`, for which the melting point (as a rule, the temperature, or range, at which the solid turns liquid) lay within 45 to 46 °C.
Turning to `CC(C)N1CCN(S(=O)(=O)c2cccc(NC(=O)Nc3ccc(C(F)(F)F)cc3)c2)CC1`, the melting point fell in the range of 117 to 122 °C.
The same measure for `COc1ccc(-c2nc(N3CCOCC3)c3c(C)c(C#N)sc3n2)cc1OC`: 194 to 196 °C; for `O=C(O)COc1ccc2cc(-c3oc4ccccc4c3-c3ccccc3)ccc2c1-c1ccccc1`: 202 to 203 °C; for `COc1ccc(-c2ccc(C(N)=O)c(Cl)c2)cc1`: 207 to 208 °C.
`FC(F)(F)c1nc(-c2ncn3c2nc(N2CCOCC2)c2ccccc23)no1` displayed a melting point of 182 to 186 °C.
The same measure for `O=c1c2c(cnn1CC=Cc1ccccc1)C(Cc1ccccc1)NCCS2` (stereo not drawn): 101 to 102 °C; for `NC(=O)c1snc(-c2cccc(C(F)(F)F)c2)c1N`: 124 °C; for `CCCCOc1ccc(Nc2cc(Nc3ccc4c(c3)OCCO4)ncc2F)cc1`: 150 to 151 °C.
Compound `CCC1OC(=O)N(CCc2ccc(NC(=O)c3sc(C)nc3C)cc2)N=C1c1ccc(OC)c(OC)c1` (stereo not drawn) had a melting point of 217 °C.
`CSc1ccc(-c2nn(Cc3ccc(Cl)cc3Cl)c(=O)cc2-c2ccc(Cl)cc2)cc1` registered a melting point of 154 to 155 °C.
Regarding `N#Cc1ccc2c(c1)CCC=C2c1ccns1`, the melting point is 77 to 81 °C.
With `COc1ccc(CC(C)=O)cc1SC`, the melting point is 74 to 75 °C.
`CCC(Oc1c(C)cccc1C)C(=O)OC1CC(O)C=C2C=CC(C)C(CCC3CC(O)CC(=O)O3)C21` (mixture of isomers) had a melting point of 125 to 127 °C.
The compound `COc1cn(-c2ccc(N3CCOCC3)c(F)c2F)nc(-c2ccnn2-c2ccccc2)c1=O` returned a melting point of 182 to 183 °C.
As for `N#Cc1cc(O)cc2cc(-c3ccc(O)c(F)c3)oc12`, the figure is over 300 °C.
`O=C(CCC(=O)c1ccccc1)NC1CNCCO1` (stereo not drawn) had a melting point of 87 to 89 °C.
For the compound `CCCCCCCOCCC(=O)Oc1ccc(N=Nc2ccc(OCCCCCC)cc2)cc1`, the melting point worked out at 69 °C.
`Oc1ccc(-c2cc3cc(Cl)ccc3o2)cc1` registered a melting point of 216 to 218 °C.
Consider `CCCCCCCCCCCCNc1nc(NCC(O)C2CC(C)(C)NC(C)(C)C2)nc(NCC(O)C2CC(C)(C)NC(C)(C)C2)n1` (stereo not drawn), for which the melting point lay within 107 to 109 °C.
`COC(=O)c1cc(OCc2ccccc2)c2nc(C)n(C)c2c1` gave a melting point of 166 °C.
As for `CCCC(=O)NN=C(C)c1sc(C)nc1C`, the melting point stood at 124 °C.
Consider `COc1cc2c(cc1O)CCCN(Cc1cc(OC)c(OC)c(OC)c1)C2`, for which the melting point lay within 46 to 48 °C.
For the compound `O=C(COc1ccccc1C1NC(C(=O)O)CS1)NCCO[N+](=O)[O-]` (stereo not drawn), the melting point fell in the range of 99 to 103 °C.
The same measure for `Cc1cc(Nc2ccnc(Nc3ccc(S(=O)(=O)N(C)C4CCN(C)CC4)cc3)n2)ccc1F`: 110 to 120 °C; for `CCN(C(=O)OC)c1cn2cc(Sc3ccccc3)ccc2n1`: 130 to 131 °C.
As for `N#Cc1c(N2CCC[C@@H]2CO)[nH]c2cccnc12`, the figure is 207 to 209 °C.
With `CCOC(=O)c1nc2n(c(=O)c1O)CCN2CCO`, the melting point was in the range of 155 to 156 °C.
As for `CN(C)CCCOc1ccc(Nc2nccc(-c3ccncc3)n2)cc1`, the figure is 123 to 124 °C.
The same measure for `O=C(NS(=O)(=O)c1ccccc1)c1cccc2nnsc12`: 173 to 175 °C.
Take `CCSc1ccc(C(=O)NCc2ccc3c(c2)C(=O)N(C2(C)CCC(=O)NC2=O)C3=O)cc1` (stereo not drawn): the melting point lay within 135 to 137 °C.
Regarding `OC1(c2cccnc2N2CCCC2)CCN(CC23CC(c4ccccc42)c2ccccc23)CC1`, the melting point was in the range of 249 to 253 °C.
The same measure for `CC(=O)OCCc1cc2c(s1)SCCC1CC(=O)NN=C21` (stereo not drawn): 106 to 108 °C; for `COC1=CC=C2C(=CCC(C)(c3ccc(OC)cc3)C2CCCCCCO)C1` (stereo not drawn): 76 to 83 °C.
As for `Cc1nc(-c2nccs2)c2nc(-c3ccccc3)cc-2[nH]1`, the figure is 248 to 250 °C; as for `COC(=O)C(=O)c1ccc(OCCOc2cc3ccccc3c3ccccc23)cc1`, 147 to 148 °C; as for `O=C1C(=O)c2ccccc2C2=C1SCC(CNCc1ccccc1)O2` (stereo not drawn), 60 to 62 °C.
Consider `Cc1nnc2n1-c1ccc(N)cc1C(c1ccccc1F)=NC2(C)C`, for which the melting point turned out to be 294 °C.
For `CC(=O)N1CCNC(=O)C1c1ccc(F)cc1` (stereo not drawn), the melting point was in the range of 139 to 140 °C.
As to `CN(C)C1CCN(S(=O)(=O)c2cc(C#N)ccc2Oc2cc(F)ccc2F)CC1`, the melting point is 154 to 157 °C.
On to `CC(C)c1ccccc1Sc1c(O)cc(-c2ccc(OCCCc3ccccc3)cc2)oc1=O`, for which the melting point was in the range of 132 to 133 °C.
For `COc1cc2c(cc1OC)NC(C)C(=O)N2` (stereo not drawn), the melting point worked out at 151 °C.
In turn, `CCCc1c(OCC(O)CSCCN(C)C)ccc(C(C)=O)c1O` (stereo not drawn) showed a melting point of 54 to 55 °C.
On to `N[C@@H](Cc1ccccc1)[C@@H](O)C[C@H](Cc1ccccc1)NC(=O)OCc1cncs1`, for which the melting point was in the range of 61 to 63 °C.
On to `Cc1cc(Cl)ccc1N=CN(C)SN(C1CCCCC1)C1CCCCC1`, for which the melting point fell in the range of 110 to 111 °C.
With `CCOC(=O)CNC(=O)c1cccs1`, the melting point is 82 to 83 °C.
For the compound `Cc1cc2c(O)n(CCc3ccc(C(=O)N[C@@H](CCC(=O)O)C(=O)O)cc3)cnc-2n1`, the melting point turned out to be 291 °C.
The same measure for `CCn1c(=O)nc(-c2ccccc2)c2cc(Cl)ccc21`: 176 to 178 °C; for `Cc1ccc(Cc2c[nH]c(NCCSCc3ccco3)nc2=O)cn1`: 147 to 152 °C.
For `CCCCCCOc1cc(C=O)c(OCCCCCC)cc1C=O`, the melting point lay in the range of 74.5 to 76 °C.
In turn, `O=C(O)c1cc(=O)c2cc3c(=O)cc(C(=O)O)[nH]c3c(Cl)c2[nH]1` yielded a melting point of over 310 °C.
As for `COC(=O)c1nc(-c2ccccc2)ccc1O`, the melting point fell in the range of 100 to 101 °C.
The same measure for `Cc1oc(-c2ccccc2)nc1COc1ccc2cc(CCCC3SC(=O)NC3=O)ccc2c1` (stereo not drawn): 208 to 209 °C; for `c1ccc2c(c1)Cn1cccc1-c1nccn1-2`: 202 to 203 °C.
As for `COc1cc2ccc(CC(=S)N3CCOCC3)cc2cc1OC`, the figure is 158 to 161 °C; as for `O=C(O)CCC(=O)OCc1ccc(-c2nn(-c3ccc(Br)cc3)c3ccccc23)o1`, 111 to 113 °C.
As for `CCCc1c(C(=O)NCc2ccc3c(Br)c(OCC(=O)OC)ccc3c2)cnn1-c1ccccc1`, the melting point fell in the range of 144 to 146 °C.
Take `O=C(c1ccccc1Cl)c1cc(Cl)ccc1-n1cnnc1CCl`: the melting point fell in the range of 139 to 140 °C.
Compound `Clc1ncnc2ccoc12` showed a melting point of 122 °C.
As to `CCCCOCCOc1ccc(-c2ccc3c(c2)C=C(C(=O)Nc2ccc(CP4(=O)OCCCO4)cc2)CCS3(=O)=O)cc1`, the melting point lay in the range of 222 to 223 °C.
As for `CC(C)n1c(C=O)c(-c2ccc(F)cc2)c(-c2ccccc2)c1C(=O)Nc1cccc(S(N)(=O)=O)c1`, the melting point was in the range of 224 to 225 °C.
As to `COc1cc2nc(N)nc(-c3ccc(O)c(I)c3)c2cc1OC`, the melting point was in the range of 248 to 250 °C.
`CCn1cc(C(=O)O)c(=O)c2cc(Cl)c(N3CCCCC3)cc21` came in with a melting point of 230 °C.
`CCCn1c(COCC)nc2c(N)nc3ccc(OC4CCN(C(=O)C(C)C)CC4)cc3c21` registered a melting point of 177 to 179 °C.
The compound `NC(=O)c1cc2c(OCCCN3CCN(c4cc(N5CCCC5)nc(N5CCCC5)n4)CC3)cccc2[nH]1` displayed a melting point of 151 to 152 °C.
Consider `NC(=O)C(c1ccccc1)(c1ccccc1)C1CCN(C2CCCCC2)C1` (stereo not drawn), for which the melting point fell in the range of 119 to 121 °C.
For the compound `COc1cc(OC)cc(-c2cc(NC(=O)CC(=O)C(F)(F)F)[nH]n2)c1`, the melting point is 119 to 121 °C.
The same measure for `CC=CC=CC(=O)n1c(N)nc2ccccc21`: 215 °C; for `CCn1nc(-c2cnc3[nH]cc(C(=O)N[C@H](C)C(=O)N4CC(C#N)C4)c3n2)c2ccc(Cl)cc21`: 248 to 255 °C.
Compound `CS(=O)(=O)c1ccc(-c2cnn(CC(F)(F)F)c(=O)c2Nc2ccccc2)cc1` displayed a melting point of 154 to 156 °C.
Compound `N#Cc1cnc2sc(-c3ccccc3C=O)cc2c1Nc1ccc2[nH]ccc2c1` yielded a melting point of 222 to 224 °C.
Regarding `Fc1ccc(-c2cc(Cl)c3ccccc3n2)cc1`, the melting point fell in the range of 90 to 93 °C.
The compound `OCc1cn2c(n1)CN=C(c1ccccc1F)c1cc(Cl)ccc1-2` gave a melting point of 196 to 200 °C.
Take `O=C(O)c1cc(Cc2c[nH]cn2)ccc1O`: the melting point was 254 to 258 °C.
The same measure for `Cc1ncc2c(n1)-c1ccc(Cl)cc1C(c1ccccc1)=NC2`: 120 to 122 °C.
The same measure for `CNC(=O)[C@H](NC(=O)c1ccc(F)cc1C(F)(F)F)[C@@H](CN)c1ccccc1` (racemic): 188 °C.
For the compound `CC1(C)CC(N2CCCC2)=CC(=C(C#N)C(O)C#N)C1` (stereo not drawn), the melting point is 246 to 247 °C.
With `O=c1[nH]c2cc(Cl)c(Cl)cc2n2ccnc12`, the melting point is over 300 °C.
`Cc1ccc(-c2nn(-c3cccc([N+](=O)[O-])c3)c(N)c2C(N)=O)cc1` gave a melting point of 237 to 238 °C.
On to `CCCC1=Cc2c3c(c(C)c(C)c2C1=O)OC(C(=O)O)C3` (stereo not drawn), for which the melting point came to 212 °C.
As for `COc1cc(N)ccc1C(=O)O`, the figure is 144 to 146 °C; as for `S=c1n(-c2ccc(Cl)cc2Cl)nc2n1CCCC2`, 118 to 120 °C; as for `COc1ccc2c(c1OC)CCC2C(=O)O` (stereo not drawn), 128 to 130 °C.
Compound `O=c1c2ccccc2nc(-n2ccnc2)n1-c1ccccc1` gave a melting point of 163 to 165 °C.
Compound `Cc1nc(OS(=O)(=O)C(F)(F)F)c([N+](=O)[O-])c(NCC(C)(C)O)c1C` displayed a melting point of 79 to 80 °C.
For `N#Cc1ccc(N2CC=C(N3CCCC3)CC2)cc1`, the melting point is 126 to 129 °C.
Compound `Cc1cc(C)c(N2CCCc3c2nn(C)c3NC(=O)OC(C)(C)C)c(Cl)c1` yielded a melting point of 171 to 176 °C.
As for `COc1ccc(NS(=O)(=O)c2ccc(N3CCC(NCC(O)c4ccc(O)c(NS(C)(=O)=O)c4)CC3)cc2)cc1OC` (stereo not drawn), the figure is 205 to 218 °C.
